Experiments:
[1] = molecular target: Replicase polyprotein 1ab (Severe acute respiratory syndrome coronavirus 2, UniProt P0DTD1); test: Inhibition of SARS CoV-2 main protease preincubated for 30 min followed by substrate addition and measured after 60 mins by fluorescence assay
[2] = Stability of compound in mouse plasma assessed as compound remaining and measured after 2 hrs; format: ADME, cell-free
[3] = Stability of compound in rat plasma assessed as compound remaining and measured after 2 hrs; format: ADME, cell-free
[4] = Stability of compound in human plasma assessed as compound remaining and measured after 2 hrs; format: ADME, cell-free
[5] = Clearance in mouse at 3 mg/kg, iv; format: ADME, organism-based; conditions: in vivo
[6] = Clearance in rat at 2 mg/kg, iv; format: ADME, organism-based; conditions: in vivo
[7] = Volume of distribution at steady state in mouse at 3 mg/kg, iv; format: ADME, organism-based; conditions: in vivo, read-out: Vdss
[8] = Volume of distribution at steady state in rat at 2 mg/kg, iv; format: ADME, organism-based; conditions: in vivo, read-out: Vdss
[9] = Half life in mouse 3 mg/kg, iv; format: ADME, organism-based; conditions: in vivo
[10] = Half life in rat 2 mg/kg, iv; format: ADME, organism-based; conditions: in vivo
[11] = Cmax in mouse at 10 mg/kg, po; format: ADME, organism-based; design: route po; conditions: in vivo
[12] = Cmax in rat at 10 mg/kg, po; format: ADME, organism-based; design: route po; conditions: in vivo
[13] = AUC in mouse at 10 mg/kg, po; format: ADME, organism-based; design: route po; conditions: in vivo
[14] = AUC in rat at 10 mg/kg, po; format: ADME, organism-based; design: dose 10 mg/kg, route po; conditions: in vivo
[15] = Oral bioavailability in mouse at 10 mg/kg; format: ADME, organism-based; conditions: in vivo
[16] = Oral bioavailability in rat at 10 mg/kg; format: ADME, organism-based; conditions: in vivo
[17] = tested on: Human coronavirus OC43; test: microbe, parasite or virus in culture; conditions: Betacoronavirus 1, MRC5, 120 h
[18] = tested on: SARS-CoV-2; test: microbe, parasite or virus in culture; conditions: Severe acute respiratory syndrome coronavirus 2, Vero, 24 h
[19] = tested on: Human coronavirus OC43; test: In vivo antiviral activity against HCoV-OC43 infected in mouse assessed as organism survival rate at 50 mg/kg,ip for 7 days; format: functional; conditions: time 7 day
[20] = tested on: Human coronavirus OC43; test: In vivo antiviral activity against HCoV-OC43 infected in mouse assessed as organism survival rate at 25 mg/kg,ip for 7 days; format: functional; conditions: time 7 day
[21] = tested on: Human coronavirus OC43; test: In vivo antiviral activity against HCoV-OC43 infected in mouse assessed as organism survival rate at 12.5 mg/kg,ip for 7 days; format: functional; conditions: time 7 day
[22] = tested on: Human coronavirus OC43; test: In vivo antiviral activity against HCoV-OC43 infected in mouse assessed as organism survival rate at 12.5 to 50 mg/kg,ip for 7 days; format: functional, organism-based; conditions: dose 12.5-50 mg/kg, time 7.0 day
[23] = Toxicity in mouse infected with HCoV-OC43 assessed as body weight change at 12.5 to 50 mg/kg, ip for 7 days; format: organism-based; conditions: in vivo, 168 h, dose 12.5-50 mg/kg, time 7 day

Row | SMILES | IC50 [1] [nM] | Stability [2] [%] | Stability [3] [%] | Stability [4] [%] | clearance [5] [mL/min/kg] | clearance [6] [mL/min/kg] | Vd [7] [L/kg] | Vd [8] [L/kg] | half-life [9] [min] | half-life [10] [min] | Cmax [11] [nM] | Cmax [12] [nM] | AUC [13] [µM·h] | AUC [14] [µM·h] | bioavailability [15] [%] | bioavailability [16] [%] | EC50 [17] [nM] | EC50 [18] [nM] | further results
1 | CC(C)(C)[C@H](NC(=O)C(F)(F)F)C(=O)N1C[C@@H]2CCC[C@@H]2[C@H]1C(=O)N[C@H](C#N)C[C@@H]1CCNC1=O | 43 | 102 | 100 | 106 | 79.3 | 75.4 | 0.64 | 1.25 | 6.66 | 14.3 | 790 | 2980 | 0.553 | 2.31 | 13.3 | 52 | 136 | 64 | –
2 | CC(C)(C)NC(=O)C(=O)[C@H](C[C@@H]1CCNC1=O)NC(=O)[C@@H]1[C@H]2CCC[C@H]2CN1C(=O)[C@@H](NC(=O)C(F)(F)F)C1CCCC1 | – | – | – | – | 5.06 | – | 0.911 | – | 196 | – | 4800 | – | 16.8 | – | 30.8 | – | 421 | – | –
3 | CC(C)(C)NC(=O)C(=O)[C@H](C[C@@H]1CCNC1=O)NC(=O)[C@@H]1[C@H]2CCC[C@H]2CN1C(=O)[C@@H](NC(=O)C(F)(F)F)C1CCCCC1 | 34 | 106 | 96 | 102 | – | 2.55 | – | 0.929 | – | 262 | 4810 | 3790 | 33 | 37.4 | 32 | 37.4 | 146 | 53 | Activity [19]: 100%; Activity [20]: 83.3%; Activity [21]: 66.6%; Activity [22]: Dose-Dependent Effect; Activity [23]: Toxic
4 | N#C[C@H](C[C@@H]1CCNC1=O)NC(=O)[C@@H]1[C@H]2CCC[C@H]2CN1C(=O)[C@@H](NC(=O)C(F)(F)F)C1CCCCC1 | 47 | 100 | – | 108 | 92.2 | 62.7 | 1.01 | 1.34 | 11.3 | 22.7 | 1160 | 3470 | 0.478 | 2.92 | 14.2 | 57.6 | 112 | 43 | –
5 | N#C[C@H](Cc1n[nH]c2ccccc12)NC(=O)[C@@H]1[C@H]2CCC[C@H]2CN1C(=O)[C@@H](NC(=O)C(F)(F)F)C1CCCCC1 | > 1000 | – | – | – | – | – | – | – | – | – | – | – | – | – | – | – | 4890 | – | –
6 | CC(C)(C)[C@H](NC(=O)C(F)(F)F)C(=O)N1C[C@@H]2C[C@@H]2[C@H]1C(=O)N[C@H](C#N)C[C@@H]1CCNC1=O | 356 | – | – | – | – | – | – | – | – | – | – | – | – | – | – | – | 5810 | – | –
7 | CC(C)(C)[C@H](NC(=O)C(F)(F)F)C(=O)N1C[C@H]2[C@@H]([C@H]1C(=O)N[C@H](C#N)C[C@@H]1CCNC1=O)C2(C)C | – | 91 | 84 | – | 30.2 | 42 | 0.456 | 1.24 | 42.8 | 46.2 | 2720 | 2140 | 3.58 | 2.38 | 32.7 | 29.9 | – | – | Activity [19]: 100%
8 | N#C[C@H](C[C@@H]1CCNC1=O)NC(=O)[C@@H]1[C@H]2CCC[C@H]2CN1C(=O)[C@@H](NC(=O)C(F)(F)F)c1ccc(F)cc1 | 165 | – | – | – | – | – | – | – | – | – | – | – | – | – | – | – | 677 | – | –
9 | CC(=O)N[C@H](C(=O)N1C[C@@H]2CCC[C@@H]2[C@H]1C(=O)N[C@H](C#N)C[C@@H]1CCNC1=O)C1CCCCC1 | 551 | – | – | – | – | – | – | – | – | – | – | – | – | – | – | – | 2780 | – | –
10 | CC(C)(C)NC(=O)C(=O)[C@H](C[C@@H]1CCNC1=O)NC(=O)[C@@H]1[C@H]2CCC[C@H]2CN1C(=O)[C@@H](NC(=O)C(F)(F)F)C1CC2(CCC2)C1 | 77 | – | – | – | – | – | – | – | – | – | – | – | – | – | – | – | 444 | – | –
